Consider eight compounds from US9434693B2, “Substituted pyrazoles as N-type calcium channel blockers” (Janssen Pharmaceutica NV, priority 2012, dated 2016).

One test has as its target N-type calcium channel (Homo sapiens (Human), UniProt Q00975). As to the kind of experiment: Automated electrophysiology assay (QPatch-HT whole-cell patch clamp). Format: cell-based. On the procedure: Cells were grown in T175 flasks to 50%-90% confluence. At the time of use, cells were enzymatically treated with Detachin (Genlantis, San Diego, Calif. USA), centrifuged, rinsed, and resuspended in 293 SFM II media (Life Technologies, Grand Island, N.Y. U.S.A.) supplemented with 25 mM HEPES (Sigma-Aldrich, St. Louis, Mo. U.S.A.) to a concentration of 2-3×10^6 cells/mL. Cells were added to the automated cell preparation station on the QPatch-HT (Sophion Biosciences, North Brunswick, N.J. U.S.A.), and following a 10- to30-min recovery period with gentle stirring, the assay protocol was initiated. During the automated cell preparation, cells were collected, centrifuged and resuspended in an extracellular (EC) solution containing 132 mM NaCl, 1.8 mM CaCl2, 5.4 mM KCl, 0.8 mM MgCl2, 10 mM glucose, and 10 mM HEPES (pH=7.4), adjusted with sucrose to approximately 315 m0sm. The QPlate was primed with an intracellular solution containing 135 mM CsCl, 10 mM EGTA, 4 MgATP, 0.3 NaGTP, and 20 mM HEPES (pH=7.2), adjusted to approximately 290 m0sm with deionized water and the EC solution. Cells were added to the prepared QPlate wells by robotic pipettes of the QPatch-HT.
For cells determined to be in stable whole-cell patch clamp, the EC solution was replaced with a barium (Ba)/triethylammonium (TEA) solution containing 140 mM TEA-Cl, 10 mM BaCl2, 0.8 mM MgCl2, 10 mM glucose and 10 mM HEPES (pH=7.4). High (40 mM) BaCl2 concentrations were made with adjustments to TEA-Cl (90 mM) to maintain the osmolarity. From a resting potential of −80 mV, a train of depolarizing pulses (15 pulses at 5 Hz, +20 mV) was delivered to the cell once every 30 sec for […], and the resulting currents were measured during a control period (no compound). This protocol was repeated for each subsequent addition of control buffer with or without compound (three periods total, each with four trains). The current generated in the 1st and 15th pulses of the last train of each period in the presence of each drug concentration was normalized to the current generated during the control period at the respective pulses (representing low- and high-frequency stimulation, respectively). Data from both the second and third drug application periods were analyzed for each cell. A final addition of Ba/TEA solution containing 60-100 μM CdCl2 was made to block all N-type current and to “zero” the currents for each cell. All buffer/compound additions were made using a “spitting” feature of the QPatch-HT, which added three repetitions of 5 μL solution at the beginning of each recording period.
To examine closed-state inactivation, cells were subjected to a channel-activating 50-msec depolarizing step pulse from −80 to +10 mV, followed by a 5-sec nonactivating step to voltages ranging from −130 to −60 mV in 10 mV increments and then a 50-ms step from −80 to +10 mV to assess the remaining current. Currents from the activating voltage pulse were normalized to the peak value of the test pulse following the −130 mV step and fit to a Boltzman equation to obtain the V1/2. Roscovitine (Sigma-Aldrich) was prepared as a 100 mM stock in dimethyl sulfoxide and diluted to the indicated working concentrations. […]. Compounds of Formula (I) were diluted first into dimethyl sulfoxide and then into 10% pluronic F-127 in water (Life Technologies), sonicated for 1 min and diluted into EC buffer. Vehicle controls were run in parallel in all experiments.
Unless otherwise indicated, statistics for comparing among electrophysiological results utilized a one-way analysis of variance with Fisher's least squares determination test for pair-wise comparison.
In general terms: The patch-clamp technique gives a direct electrical read-out from membranes.

Test [1] concerns the target N-type calcium channel (α1B (Cav2.2), β3 and α2δ subunits) in stable HEK cell line (Homo sapiens (Human), UniProt Q00975). Description: Functional assay (FDSS calcium mobilization): antagonism of N-type calcium channel. To be noted: for inhibition at 0.33 µM: HEK293, FDSS, 0.33 μM compound; for IC50: KCl (50 mM) depolarization, six-point concentration-response. Format: cell-based. On the procedure:
A stable cell line (HEK parent) co-expressing the α1B (Cav2.2), β3 and α2δ subunits of the N-type calcium channel subunits was used. These cells were routinely grown as monolayers in low glucose-containing Dulbecco's Modified Eagle Medium supplemented with 10% FBS, 2 mM L-glutamine, 100 I.U./mL penicillin, 100 μg/mL streptomycin, 400 μg/mL G418 and 200 μg/mL Zeocin (split ratio=1:5). Cells were maintained in 5% CO2 at 37° C. Compounds of Formula (I) were prepared as 10 mM stocks in DMSO from neat compound, if available. Otherwise, the 5 or 10 mM DMSO stock solutions provided in-house were used.
Calcium mobilization responses to KCl depolarization were evaluated by measuring the intensity of calcium-mediated fluorescent signal in the presence of BD Calcium Assay Dye (BD Biosciences, Franklin Lakes, N.J., U.S.A.), utilizing a Functional Drug Screening System (FDSS) by Hamamatsu Corporation (Bridgewater, N.J. U.S.A.).
Twenty-four hr prior to assay, cells were seeded in clear-base poly-D-lysine-coated 384-well plates (BD Biosciences) at a density of 5,000 cells per well in culture medium and grown overnight in 5% CO2 at 37° C. On the day of assay, growth media were removed, and cells were loaded with BD calcium assay dye (BD Biosciences) for 35 min at 37° C. under 5% CO2 and then for 25 min at room temp. Utilizing the FDSS, cells were exposed to representative compounds of Formula (I) at varying concentrations, and intracellular calcium was measured for 5 min prior to the addition of 50 mM KCl for an additional 3 min of measurement.
IC50 values for representative compounds of Formula (I) were determined from six-point concentration-response experiments and represent the concentration of said compound required to inhibit 50% of the maximal response. Maximal fluorescence intensity (FI) achieved upon addition of 50 mM KCl was exported from the FDSS software and further analyzed using GraphPad Prism 3.02 (Graph Pad Software Inc., San Diego, Calif., U.S.A.). Data were normalized to the maximum average counts from quadruplicate wells for each condition in the presence of 50 mM KCl and to the minimum average counts in the presence of buffer. Theoretical curves were generated using nonlinear regression curve-fitting analysis of either sigmoidal concentration-response or sigmoidal concentration-response (variable slope), and the IC50 values with the best-fit curve determined by GraphPad Prism were reported.
(Calcium flux is commonly read through the fluorescence of an indicator in the cells.)

The test system of test [2] is CFA-induced thermal hyperalgesia. As to the kind of experiment: Complete Freund's Adjuvant (CFA)-induced hyperalgesia, radiant heat. The note with it: FIG. 1, numbers not given. Format: in vivo, Sprague-Dawley rats.
[3] abbreviates: high-frequency stimulation (15th pulse of train, 5 Hz), read-out: QPatch at High Frequency % Inhibition at 0.1 μM.
Setting [4] is: low-frequency stimulation (1st pulse of train), read-out: QPatch at Low Frequency % Inhibition at 0.1 μM.

Read-outs that look alike come from different tables or passages of the source.

Chain of N-type calcium channel (Q00975 whole entry): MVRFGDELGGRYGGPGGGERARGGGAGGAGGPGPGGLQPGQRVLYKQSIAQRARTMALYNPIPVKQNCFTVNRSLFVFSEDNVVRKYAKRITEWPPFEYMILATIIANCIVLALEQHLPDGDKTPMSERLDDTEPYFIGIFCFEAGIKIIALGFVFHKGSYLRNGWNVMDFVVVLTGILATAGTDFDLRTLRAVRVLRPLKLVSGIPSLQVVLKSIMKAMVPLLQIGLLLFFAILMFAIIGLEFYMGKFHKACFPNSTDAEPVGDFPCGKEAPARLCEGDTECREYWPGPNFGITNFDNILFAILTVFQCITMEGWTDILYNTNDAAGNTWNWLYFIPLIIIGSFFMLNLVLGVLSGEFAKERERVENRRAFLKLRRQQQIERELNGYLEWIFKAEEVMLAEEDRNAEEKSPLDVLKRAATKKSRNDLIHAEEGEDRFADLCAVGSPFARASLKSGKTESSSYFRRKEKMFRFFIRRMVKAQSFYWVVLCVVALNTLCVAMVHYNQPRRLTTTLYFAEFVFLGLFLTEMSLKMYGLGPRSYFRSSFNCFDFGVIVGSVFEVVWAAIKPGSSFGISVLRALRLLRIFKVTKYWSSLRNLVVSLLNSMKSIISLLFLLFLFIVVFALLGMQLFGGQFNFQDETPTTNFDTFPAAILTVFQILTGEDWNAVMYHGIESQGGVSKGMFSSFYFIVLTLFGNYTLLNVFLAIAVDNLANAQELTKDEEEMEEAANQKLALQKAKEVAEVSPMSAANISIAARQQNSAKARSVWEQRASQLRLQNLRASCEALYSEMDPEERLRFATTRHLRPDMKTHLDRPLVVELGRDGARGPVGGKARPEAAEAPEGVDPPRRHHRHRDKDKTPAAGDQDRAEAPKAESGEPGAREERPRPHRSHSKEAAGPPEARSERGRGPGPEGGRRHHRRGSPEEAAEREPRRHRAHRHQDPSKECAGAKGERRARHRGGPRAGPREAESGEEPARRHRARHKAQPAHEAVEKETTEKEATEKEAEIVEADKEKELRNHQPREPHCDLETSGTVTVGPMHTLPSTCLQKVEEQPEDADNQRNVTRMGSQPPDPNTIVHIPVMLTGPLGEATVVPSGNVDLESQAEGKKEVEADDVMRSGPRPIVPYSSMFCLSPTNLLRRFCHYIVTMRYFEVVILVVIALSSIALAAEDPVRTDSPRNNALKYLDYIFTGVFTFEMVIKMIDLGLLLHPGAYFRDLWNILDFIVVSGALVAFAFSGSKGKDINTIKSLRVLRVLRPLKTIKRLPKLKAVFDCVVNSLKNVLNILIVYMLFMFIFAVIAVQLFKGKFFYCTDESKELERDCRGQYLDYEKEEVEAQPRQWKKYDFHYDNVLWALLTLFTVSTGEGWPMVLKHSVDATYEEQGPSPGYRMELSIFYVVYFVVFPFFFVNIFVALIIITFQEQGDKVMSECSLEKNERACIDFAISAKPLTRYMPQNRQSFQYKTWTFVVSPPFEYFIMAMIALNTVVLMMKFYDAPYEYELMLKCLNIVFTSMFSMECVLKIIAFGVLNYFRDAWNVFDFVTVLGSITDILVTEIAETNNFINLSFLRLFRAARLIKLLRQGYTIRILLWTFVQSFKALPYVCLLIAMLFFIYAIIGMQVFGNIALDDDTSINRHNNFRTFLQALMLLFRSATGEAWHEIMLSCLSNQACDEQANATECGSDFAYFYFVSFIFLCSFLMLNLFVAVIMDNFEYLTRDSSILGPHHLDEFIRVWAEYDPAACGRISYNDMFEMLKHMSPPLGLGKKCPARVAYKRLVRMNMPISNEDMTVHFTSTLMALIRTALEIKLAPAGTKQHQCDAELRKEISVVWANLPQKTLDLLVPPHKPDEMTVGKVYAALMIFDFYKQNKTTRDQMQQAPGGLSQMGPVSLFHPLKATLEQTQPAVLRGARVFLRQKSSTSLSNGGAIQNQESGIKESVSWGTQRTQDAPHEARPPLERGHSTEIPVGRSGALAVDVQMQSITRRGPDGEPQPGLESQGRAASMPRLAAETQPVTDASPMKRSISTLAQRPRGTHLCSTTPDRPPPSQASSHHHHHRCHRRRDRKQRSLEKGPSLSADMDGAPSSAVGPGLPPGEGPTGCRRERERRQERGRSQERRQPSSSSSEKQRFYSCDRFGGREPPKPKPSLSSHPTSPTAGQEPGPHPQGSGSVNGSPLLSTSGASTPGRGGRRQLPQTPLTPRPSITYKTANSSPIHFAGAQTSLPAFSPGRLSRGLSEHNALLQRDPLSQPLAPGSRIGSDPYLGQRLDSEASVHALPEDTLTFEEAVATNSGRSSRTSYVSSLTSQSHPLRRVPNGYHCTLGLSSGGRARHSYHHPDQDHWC
Chain of N-type calcium channel (P54284 whole entry partner): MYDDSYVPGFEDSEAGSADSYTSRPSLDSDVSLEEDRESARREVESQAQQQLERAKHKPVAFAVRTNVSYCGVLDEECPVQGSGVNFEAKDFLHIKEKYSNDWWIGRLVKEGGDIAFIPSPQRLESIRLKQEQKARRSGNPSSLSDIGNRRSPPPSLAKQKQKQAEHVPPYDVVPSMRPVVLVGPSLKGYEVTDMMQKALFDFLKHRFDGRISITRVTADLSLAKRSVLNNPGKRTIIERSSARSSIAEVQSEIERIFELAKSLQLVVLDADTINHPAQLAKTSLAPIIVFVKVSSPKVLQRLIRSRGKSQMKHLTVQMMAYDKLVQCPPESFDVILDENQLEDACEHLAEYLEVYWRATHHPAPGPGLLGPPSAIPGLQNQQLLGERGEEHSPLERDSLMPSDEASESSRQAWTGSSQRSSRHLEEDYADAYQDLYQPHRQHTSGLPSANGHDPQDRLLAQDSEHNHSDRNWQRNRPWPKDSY
Chain of N-type calcium channel (P54289 25-1103 partner): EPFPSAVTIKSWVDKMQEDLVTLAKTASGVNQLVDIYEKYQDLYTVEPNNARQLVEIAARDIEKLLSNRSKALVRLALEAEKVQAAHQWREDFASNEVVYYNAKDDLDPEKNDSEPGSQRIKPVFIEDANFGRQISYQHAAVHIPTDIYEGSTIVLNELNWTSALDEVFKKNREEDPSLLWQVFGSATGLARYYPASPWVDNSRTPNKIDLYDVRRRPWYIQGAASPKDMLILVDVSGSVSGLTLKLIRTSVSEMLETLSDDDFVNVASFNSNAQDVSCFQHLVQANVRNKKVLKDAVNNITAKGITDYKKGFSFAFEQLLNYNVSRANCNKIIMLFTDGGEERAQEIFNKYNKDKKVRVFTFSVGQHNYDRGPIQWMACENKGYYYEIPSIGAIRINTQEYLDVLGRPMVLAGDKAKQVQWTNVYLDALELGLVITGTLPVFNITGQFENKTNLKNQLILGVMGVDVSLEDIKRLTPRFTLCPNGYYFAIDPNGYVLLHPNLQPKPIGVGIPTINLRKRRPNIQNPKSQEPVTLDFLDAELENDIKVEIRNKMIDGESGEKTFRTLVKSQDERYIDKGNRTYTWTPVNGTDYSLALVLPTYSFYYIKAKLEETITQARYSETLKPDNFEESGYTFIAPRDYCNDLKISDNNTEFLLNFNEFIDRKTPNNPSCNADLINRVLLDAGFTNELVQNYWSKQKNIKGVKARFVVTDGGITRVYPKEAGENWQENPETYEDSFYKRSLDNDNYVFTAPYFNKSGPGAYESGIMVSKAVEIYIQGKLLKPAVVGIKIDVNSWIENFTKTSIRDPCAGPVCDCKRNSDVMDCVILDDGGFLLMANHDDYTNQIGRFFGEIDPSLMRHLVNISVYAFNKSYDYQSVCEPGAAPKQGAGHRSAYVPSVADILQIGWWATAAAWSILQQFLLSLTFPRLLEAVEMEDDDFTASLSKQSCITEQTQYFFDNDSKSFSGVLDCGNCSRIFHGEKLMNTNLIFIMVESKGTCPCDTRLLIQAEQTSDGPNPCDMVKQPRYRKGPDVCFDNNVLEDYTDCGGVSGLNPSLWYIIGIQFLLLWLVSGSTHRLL
Chain of N-type calcium channel (α1B (Cav2.2), β3 and α2δ subunits) in stable HEK cell line (Q00975 whole entry): as the sequence (Q00975 whole entry) above
Chain of N-type calcium channel (α1B (Cav2.2), β3 and α2δ subunits) in stable HEK cell line (P54284 whole entry partner): as the sequence (P54284 whole entry partner) above
Chain of N-type calcium channel (α1B (Cav2.2), β3 and α2δ subunits) in stable HEK cell line (P54289 25-1103 partner): as the sequence (P54289 25-1103 partner) above

As a reminder, the inhibition is the change of the read-out against control, counted positive when it falls. As usually defined, the IC50 is the concentration that gives 50% inhibition. Regarding `COc1ccccc1-n1nc(OC2CN(C(=O)N(C)OC)C2)cc1-c1ccc(Cl)cc1` [Compound 29, 3-{[5-(4-Chlorophenyl)-1-(2-methoxyphenyl)-1H-pyrazol-3-yl]oxy}-N-methoxy-N-methylazetidine-1-carboxamide], the inhibition at 0.1 µM on N-type calcium channel (setting [3]) was 1%. Besides, the inhibition at 0.1 µM at N-type calcium channel (setting [4]) was -24%. In addition, in test [1], the inhibition at 0.33 µM is 94% and the IC50 came to 0.014 µM.

Regarding `COc1ccccc1-n1nc(OC2CCN(S(=O)(=O)C(C)C)CC2)cc1-c1ccc(Cl)cc1` [Compound 21, 4-{[5-(4-Chlorophenyl)-1-(2-methoxyphenyl)-1H-pyrazol-3-yl]oxy}-1-[(1-methylethyl)sulfonyl]piperidine], the inhibition at 0.1 µM on N-type calcium channel (setting [3]) worked out at 23%; at N-type calcium channel (setting [4]) it was 15%. Moreover, the inhibition at 0.33 µM in test [1] was found to be 95%. The IC50 in test [1] was found to be 0.036 µM.

For `COc1ccccc1-n1nc(OC2CN(S(C)(=O)=O)C2)cc1-c1ccc(Cl)cc1` [Compound 26, 5-(4-Chlorophenyl)-1-(2-methoxyphenyl)-3-{[1-(methylsulfonyl)azetidin-3-yl]oxy}-1H-pyrazole], the inhibition at 0.1 µM at N-type calcium channel (setting [3]) worked out at 40%; at N-type calcium channel (setting [4]), 37%. The inhibition at 0.33 µM in test [1] was 91%. The IC50 in test [1] was 0.031 µM.

For `CC(C)Oc1ccccc1-n1nc(OC2CCN(S(C)(=O)=O)CC2)cc1-c1ccc(Cl)cc1` [Compound 20, 4-({5-(4-Chlorophenyl)-1-[2-(1-methylethoxy)phenyl]-1H-pyrazol-3-yl}oxy)-1-(methylsulfonyl)piperidine], the results for the inhibition at 0.1 µM on N-type calcium channel (setting [3]) and on N-type calcium channel (setting [4]) were 37% and 24%, respectively. For the same compound, in test [1], the IC50 was 0.0215 µM.

For `COc1ccccc1-n1nc(OC2CC(C)(C)OC(C)(C)C2)cc1-c1ccc(Cl)cc1` [Compound 23, 5-(4-chlorophenyl)-1-(2-methoxyphenyl)-3-((2,2,6,6-tetramethyltetrahydro-2H-pyran-4-yl)oxy)-1H-pyrazole], the inhibition at 0.1 µM on N-type calcium channel (setting [3]) was 37%. The inhibition at 0.1 µM at N-type calcium channel (setting [4]) was 11%. Also, the “effect in rat CFA radiant heat model of inflammatory pain” value in test [2] is “antihyperalgesic effect”. Moreover, in test [1], the inhibition at 0.33 µM worked out at 96% and the IC50 is 0.0076 µM.

Turning to `COc1ccccc1-n1nc(OC2CCN(S(=O)(=O)C3CC3)CC2)cc1-c1ccc(Cl)cc1` [Compound 15, 4-{[5-(4-Chlorophenyl)-1-(2-methoxyphenyl)-1H-pyrazol-3-yl]oxy}-1-(cyclopropylsulfonyl)piperidine], the inhibition at 0.1 µM at N-type calcium channel (setting [3]) came out at 55%; at N-type calcium channel (setting [4]), 25%. In test [1], the IC50 came to 0.009 µM.

`COc1ccccc1-n1nc(OC2CN(S(=O)(=O)c3c(C)noc3C)C2)cc1-c1ccc(Cl)cc1` [Compound 30, 4-[(3-{[5-(4-Chlorophenyl)-1-(2-methoxyphenyl)-1H-pyrazol-3-yl]oxy}azetidin-1-yl)sulfonyl]-3,5-dimethylisoxazole]: on N-type calcium channel (setting [3]), the inhibition at 0.1 µM turned out to be 53%. Also, the inhibition at 0.1 µM on N-type calcium channel (setting [4]) came to 30%. Further, in test [1], the inhibition at 0.33 µM turned out to be 93% and the IC50 was 0.008 µM.

As to `COc1ccc(-c2cc(OC3CC(C)(C)OC(C)(C)C3)nn2-c2ccccc2OC)cc1` [Compound 31, 1-(2-Methoxyphenyl)-5-(4-methoxyphenyl)-3-[(2,2,6,6-tetramethyltetrahydro-2H-pyran-4-yl)oxy]-1H-pyrazole], at N-type calcium channel (setting [3]), the inhibition at 0.1 µM amounted to 44%. In addition, the inhibition at 0.1 µM on N-type calcium channel (setting [4]) was determined as 28%. In test [1], the inhibition at 0.33 µM came out at 97% and the IC50 was 0.0094 µM.
